Measured values from PubChem BioAssay AID743394 (Broad Institute, 2014).
The source made the active and inactive calls.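 Rule for the calls: active = 40% activation versus positive control reached by fitted dose-response curve at or below highest valid tested dose; inconclusive = poor fit quality, or flat fit with activation between 30% and 70%; inactive = the rest.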

Experiment: Xi-linked GFP reactivating small molecules – imaging, 68-5-11 mouse fibroblasts, cherry-pick, dose response (AID 743394);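 note: sensitizer 5-aza-dC present in the wells at 0.5 mM final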
Details: 68-5-11 mouse fibroblast XiGFP reporter, % GFP-positive imaging, 3 d
[1] = at 19.5 µM (top of the series), cells co-treated with 5-aza-dC sensitizer, scaled: neutral wells 0, ellipticine wells 100
[2] = at 21 µM (top of the series), cells co-treated with 5-aza-dC sensitizer, scaled: neutral wells 0, ellipticine wells 100

| SMILES | activation [1] | further results |
| --- | --- | --- |
| CC1CC(C)CN(C(=O)CSCC(=O)Nc2nc(-c3cccs3)cs2)C1 (stereo not given) | -0.047% (inactive) | – |
| COc1ccc(S(=O)(=O)N(C)C[C@H]2Oc3ccc(NS(=O)(=O)c4ccc(F)cc4)cc3CC(=O)N([C@@H](C)CO)C[C@@H]2C)cc1 | 0.034% (inactive) | – |
| CCCC(=O)OCCNc1cc(Sc2nccn2C)c2nonc2c1[N+](=O)[O-] | -0.034% (inactive) | – |
| CN(C)S(=O)(=O)c1cccc(C(=O)NCC2(N3CCOCC3)CCCCC2)c1 | -0.002% (inactive) | – |
| Cc1cccn2c(=O)c3cc(C(=O)NCc4ccc(F)cc4)c(=N)n(CCCN4CCOCC4)c3nc12 | 0.061% (inactive) | – |
| COc1ccc(NS(=O)(=O)c2ccc(NC(C)=O)cc2)nn1 | 0.042% (inactive) | – |
| C[C@H]1CN([C@@H](C)CO)S(=O)(=O)c2ccc(Br)cc2O[C@H]1CN(C)C(=O)c1cccnc1 | -0.033% (inactive) | – |
| O=C(c1ccc(S(=O)(=O)c2ccc(Cl)cc2)cc1)N1CCOCC1 | 0.117% (inactive) | – |
| O=C(CC1CC1)N1CC(=O)N2[C@@H](CO)[C@H](c3ccc(C#Cc4ccc(F)cc4)cc3)[C@@H]2C1 | -0.031% (inactive) | – |
| COc1ccc(/C=c2/sc3nc(-c4ccccc4)c(-c4ccccc4)n3c2=O)cc1 | -0.002% (inactive) | – |
| O=C(O)c1ccccc1NS(=O)(=O)c1ccc(N/N=C/c2cccc(O)c2O)c([N+](=O)[O-])c1 | -0.035% (inactive) | – |
| S=C(SSC(=S)N1CCOCC1)N1CCOCC1 | -0.127% (inactive) | – |
| Cc1cc2c(NC(=O)Nc3ccc(C(C)(C)C)cc3)cccc2nn1 | 0.068% (inactive) | – |
| O=[N+]([O-])c1ccc(O)c([N+](=O)[O-])c1 | – | activation (at 19.5 µM (top of the series)): -0.014% (inactive) |
| O=C(N/N=C/c1ccc2cccnc2c1)c1nc2ccccc2c(=O)[nH]1 | 0.014% (inactive) | – |
| CC(=O)c1ccc(NS(=O)(=O)c2ccc(N/C=C/C(=O)c3ccc(F)cc3)cc2)cc1 | 0.351% (inactive) | – |
| OCC[n+]1c2ccccc2nc2ccc(N3CCOCC3)cc21 | – | activation (at 19.5 µM (top of the series)): 0.02% (inactive) |
| CNC(=O)C[C@H]1C(=O)N(c2ccccc2)C[C@@H]1C | 0.464% (inactive) | – |
| O=C(N/N=C/c1ccc(O)c2ncccc12)c1cccc(Br)c1 | -0.037% (inactive) | – |
| COc1ccccc1N=Nc1c(C)[nH]n(-c2ccccc2)c1=O | -0.075% (inactive) | – |
| Cc1n[nH]c(=S)n(/N=C/c2cccc([N+](=O)[O-])c2)c1=O | -0.091% (inactive) | – |
| COc1ccc(Cc2c(O)nc(SCC(=O)NC34CC5CC(CC(C5)C3)C4)[nH]c2=O)cc1 | 0.41% (inactive) | – |

| SMILES | activation [1] | further results |
| --- | --- | --- |
| CNc1ncnc(Sc2ccc(Cl)cc2)c1[N+](=O)[O-] | 0.297% (inactive) | – |
| CO[C@@H]1CN(C)C(=O)c2ccc(NC(=O)Nc3cccc(Cl)c3)cc2OC[C@H](C)N(C(=O)Nc2c(C)noc2C)C[C@H]1C | -0.002% (inactive) | – |
| CN(C)/C=C1\C=C2C(=O)c3ccccc3N2C1=O | 4.14% (inactive) | – |
| O=C(O)/C=C/C(=O)Nc1ccc(-n2nccc2C(F)(F)F)cc1 | 1.34% (inactive) | – |
| C[C@@H]1CN([C@@H](C)CO)C(=O)c2cc(NS(=O)(=O)c3ccccc3)ccc2O[C@@H](C)CCCCO[C@@H]1CN(C)Cc1ccc2c(c1)OCO2 | 0% (inactive) | – |
| CN(C)C=NC(=O)c1cc(C(=O)c2ccc(Cl)cc2Cl)c[nH]1 | -0.032% (inactive) | – |
| COC(=O)c1ccc(-n2c(C)cc(C(=O)COC(=O)C3=COCCO3)c2C)cc1 | -0.033% (inactive) | – |
| C[C@@H]1CN([C@H](C)CO)C(=O)c2cc(NC(=O)Nc3ccc4c(c3)OCO4)ccc2O[C@@H](C)CCCCO[C@@H]1CN(C)C(=O)Cc1ccccc1 | 0.577% (inactive) | – |
| COc1ccc2c3c([nH]c2c1)[C@H](CO)N(C(=O)C1CCCC1)CC31CN(Cc2nccs2)C1 | -0.007% (inactive) | – |
| O=C(O)c1cccnc1C(=O)N1CCc2c([nH]c3ccccc23)C1C(F)(F)F (stereo not given) | 0.006% (inactive) | – |
| C/C=C/Cn1c(SCCCc2ccccc2)nc2c1c(=O)[nH]c(=O)n2C | -0.024% (inactive) | – |
| NC(=O)c1sc2nc3c(cc2c1N)CCCCCC3 | 0.065% (inactive) | – |
| O=C(OCc1cc(=O)n2c(n1)sc1ccccc12)c1ccc(O)cc1O | 0.076% (inactive) | – |
| C=C(C)c1cccc(C(C)(C)NC(=O)Nc2nnc(C(C)C)s2)c1 | -0.035% (inactive) | – |
| Cc1ccccc1C1c2[nH]c3ccccc3c2CCN1Cc1cccn1-c1ncccn1 (stereo not given) | 0.097% (inactive) | – |
| Cc1ccc(C(=O)NCc2ccccn2)cc1NC1=NC2CS(=O)(=O)CC2S1 (stereo not given) | 0.151% (inactive) | – |
| O=C1N(c2ccccc2)C[C@@H]2C[C@@H](c3cc4ccccc4o3)N3CCC[C@@]123 | -0.008% (inactive) | – |
| Nc1c(-c2ccccc2)c(CN2CCOCC2)nn1-c1ccc(C(=O)O)cc1 | -0.014% (inactive) | – |
| CC(=O)NC(c1ccc(Cl)cc1)c1c(O)ccc2ccc(O)cc12 (stereo not given) | 0.013% (inactive) | – |
| CC1CN(C(=O)/C=C/c2ccc([N+](=O)[O-])s2)CC(C)O1 (stereo not given) | -0.075% (inactive) | – |
| CC1CCN(C(=O)Cn2nnc(-c3ccccc3)n2)CC1 | 0.315% (inactive) | – |
| O=C(c1ccccc1Cl)N1CCSCCS1(=O)=O | 0.035% (inactive) | – |

| SMILES | activation [1] | further results |
| --- | --- | --- |
| Cc1cccc(-c2ccc([C@@H]3[C@@H](CO)N4CCCCN(S(=O)(=O)c5ccccc5F)C[C@H]34)cc2)c1 | 0% (inactive) | – |
| COc1ccc2c3c(n(C)c2c1)[C@H](CO)N(C(=O)CN1CCOCC1)CC31CCN(C(=O)Nc2cccc(F)c2)CC1 | -0.035% (inactive) | – |
| Nc1ccccc1Sc1ccc(C(F)(F)F)cc1[N+](=O)[O-] | 0.953% (inactive) | – |
| Cc1cc(N)ncc1[N+](=O)[O-] | 0.508% (inactive) | – |
| Cc1ccc(-c2ccccc2[C@@H]2[C@H](C#N)N(S(C)(=O)=O)[C@H]2CO)cc1 | – | activation [2]: 0.241% (inactive) |
| Cc1cc(NC(=O)CSc2nnc(-c3c[nH]c4ccccc34)n2-c2ccc(F)cc2)no1 | 0.139% (inactive) | – |
| COc1ccc(CCNC(=O)c2ccc([N+](=O)[O-])cc2)cc1 | -0.024% (inactive) | – |
| CCCN(C)C[C@@H]1OCc2cnnn2CCCC(=O)N([C@H](C)CO)C[C@H]1C | 1.19% (inactive) | – |
| COc1ccc(N(C)S(=O)(=O)c2cccc(C(=O)NCC(c3cccs3)N(C)C)c2)cc1 (stereo not given) | 0.036% (inactive) | – |
| CC(C)OC(=O)/C(=C\c1cccnc1)NC(=O)c1ccccc1 | -0.024% (inactive) | – |
| CC=Cc1ccc2n(c1=O)C[C@@H]1[C@@H](CO)[C@H](C(=O)NCCCN(C)C)[C@H]2N1C(=O)c1ccccc1F (mixture of isomers) | -0.01% (inactive) | – |
| NC(=NC(=O)c1cccc(C(F)(F)F)c1)c1ccc(C(F)(F)F)cn1 | 0.408% (inactive) | – |
| CC(=O)N(C)C[C@@H]1Oc2ncc(-c3cccnc3)cc2C(=O)N([C@@H](C)CO)C[C@@H]1C | 0.082% (inactive) | – |
| COc1cc(/C=C/c2ccc3cccc(O)c3n2)ccc1O | 3.08% (inactive) | – |
| Brc1ccc(-c2cn3ccccc3n2)cc1 | -0.039% (inactive) | – |
| CC(C)n1c(NCc2cc(Cl)ccc2O)nc2ccccc21 | -0.029% (inactive) | – |
| CN(Cc1nccn1C)C(=O)CC1C(=O)NCCN1CC(c1ccccc1)c1ccccc1 (stereo not given) | 0.001% (inactive) | – |
| COc1ccc(N2CCN(C(CNC(=O)c3ccc4c(c3)OCO4)c3ccco3)CC2)cc1 (stereo not given) | -0.08% (inactive) | – |
| CO[C@H](CN(C)C(=O)Nc1ccc(C(F)(F)F)cc1)[C@@H](C)CN(Cc1ccccc1Cl)[C@@H](C)CO | – | activation [2]: 0% (inactive) |
| Nc1ccccc1Nc1cc(-c2ccccc2)[nH]n1 | -0.047% (inactive) | – |
| C[C@H](CO)N1C[C@H](C)[C@H](CN(C)Cc2ccccc2)Oc2ccc(NS(C)(=O)=O)cc2C1=O | -0.035% (inactive) | – |
| CCOCCCNC(=O)C(c1ccc(C)cc1)N(Cc1cccs1)C(=O)c1ccccn1 (stereo not given) | 0.035% (inactive) | – |

| SMILES | activation [1] | further results |
| --- | --- | --- |
| COCCNC(=S)N(Cc1cccnc1)Cc1ccc(OC)c(OC)c1 | 0.071% (inactive) | – |
| CCOC(=O)C1=C(C)NC(=S)NC1/C=C/c1ccccc1 (stereo not given) | -0.024% (inactive) | – |
| CCOC(=O)C1CCN(C(=O)c2ccc(NS(=O)(=O)c3ccc(F)cc3C)cc2)CC1 | 0.035% (inactive) | – |
| CN1CCN(S(=O)(=O)c2ccc(C#N)cc2)C(c2ccccc2)C1 (stereo not given) | 0.227% (inactive) | – |
| CC(C)c1ccc(N2C(=O)/C(=C/N(C)C)SC2=S)cc1 | 0.088% (inactive) | – |
| CCOC(=O)c1ccc(NC(=O)C2(N3C(=O)c4ccccc4C3=O)CCCC2)cc1 | 0.082% (inactive) | – |
| COc1cccc(CNC(=O)c2ccc(NC(=O)CC3SC(N4CCCC4)=NC3=O)cc2)c1 (stereo not given) | 0.01% (inactive) | – |
| CCOC(=O)c1sc(-c2ccc(F)cc2)cc1NC(=O)Nc1ccccc1OC | 0.169% (inactive) | – |
| Nc1nnc(SCC(=O)c2ccc([N+](=O)[O-])cc2)s1 | 0.961% (inactive) | – |
| COC(=O)c1sc(-c2ccc(C(C)(C)C)cc2)cc1NC(=O)c1ccccc1C(=O)O | -0.053% (inactive) | – |
| CC(=O)Nc1sc(N/N=C/c2ccc(N(C)C)cc2)nc1-c1ccc(C)cc1 | 0.052% (inactive) | – |
| Nc1nc(C2CCOCC2)cs1 | -0.032% (inactive) | – |
| CCCCCC[n+]1ccccc1/C=C/c1ccc(N(C)C)cc1 | 6.32% (inactive) | – |
| Cc1ccc(O)c(N=Nc2ccc(S(=O)(=O)N3CCCC3)cc2)c1 | 0.067% (inactive) | – |
| Cc1cc(/C=C2/C(=O)NC(=O)N(Cc3ccco3)C2=O)c(C)n1-c1ccccc1O | – | activation (at 19.5 µM (top of the series)): -0.049% (inactive) |
| COc1ccc2c(c1)c(/C=N/Nc1nc3ccccc3[nH]1)c(C)n2C | 5.21% (inactive) | – |
| C=CCn1c(O)c(C(C)=NCc2ccc3c(c2)OCO3)c(=O)[nH]c1=O | – | activation (at 19.5 µM (top of the series)): 0.026% (inactive) |
| COc1ccc(-c2nn(-c3ccccc3)cc2C(=O)NC(=S)Nc2cc(Cl)ccc2Cl)cc1 | 3.67% (inactive) | – |
| COc1cccc(NC(=O)N(C)C[C@@H]2Oc3cc(Br)ccc3S(=O)(=O)N([C@@H](C)CO)C[C@H]2C)c1 | -0.016% (inactive) | – |
